Results on 1 compound are retold here after ChEMBL document CHEMBL3046758, “Biological evaluation of novel 1,4-dithiine derivatives as potential antimicrobial agents” (Med Chem Res, 2011).

A value given as a limit tells only on which side of the number the result lay.

For orientation: EC50 means the concentration needed to bring the measured effect to its halfway point. In general, MIC refers to the lowest concentration found to suppress growth. In general, CC50 refers to the concentration that lowers cell viability or growth by half.

Series [1] is described as follows: Selectivity index, ratio of CC50 for green monkey Vero76 cells to EC50 for Yellow fever virus. The series is classed as toxicity, cell-based, Vero 76. The settings on record: read-out: Ratio CC50/EC50.
The next series concerns Coxsackievirus B2. The series is described as follows: Antiviral activity against Human coxsackievirus B2 infected African green monkey Vero76 cells assessed as reduction of virus-induced plaque reduction after 3 days by MTT assay. The series is classed as functional, organism-based. The settings on record: Enterovirus B, Vero 76, 72 h. Background: Tetrazolium dyes change colour on reduction, which living cells bring about.

A further series deals with Pseudomonas aeruginosa. The series is described as follows: Antibacterial activity against Pseudomonas aeruginosa DSM 1117 after 16 to 20 hr by broth microdilution method. The format is functional. Background: In broth dilution the organism is exposed to a series of concentrations in liquid medium.
A short description of series [2]: Cytotoxicity against Chlorocebus aethiops (African green monkey) Vero76 cells after 48 to 120 hr by MTT assay. The format is cell-based, Vero 76. Particulars: chlorocebus sabaeus.
A further series relates to Candida albicans. The series is described as follows: Antifungal activity against Candida albicans DSM 1386 after 24 to 48 hr by broth microdilution method. The format is functional.
The subject of another series is Aspergillus niger. Kind of series: Antifungal activity against Aspergillus niger DSM 1988 after 24 to 48 hr by broth microdilution method. The format is functional.
A further series has as its system Human alphaherpesvirus 1. Kind of series: Antiviral activity against Human herpesvirus 1 infected African green monkey Vero76 cells assessed as reduction of virus-induced plaque reduction after 3 days by MTT assay. The series is classed as functional, organism-based. The settings on record: Human alphaherpesvirus 1, Vero 76, 72 h.
The subject of series [3] is Bovine viral diarrhea virus 1. Kind of series: Antiviral activity against Bovine viral diarrhea virus 1 infected MDBK cells assessed as inhibition of virus-induced cytopathogenicity after 3 to 4 days by MTT assay. The series is classed as functional, organism-based. The settings on record: Bovine viral diarrhea virus isolates and strains.
For a further series, the system named is Vaccinia virus. Kind of series: Antiviral activity against Vaccinia virus infected African green monkey Vero76 cells assessed as reduction of virus-induced plaque reduction after 3 days by MTT assay. The format is functional, organism-based. The settings on record: Orthopoxvirus vaccinia, Vero 76, 72 h.
In a further series the test system is Poliovirus 1. The series is described as follows: Antiviral activity against Human poliovirus 1 strain Sabin infected African green monkey Vero76 cells assessed as reduction of virus-induced plaque reduction after 2 days by MTT assay. The settings on record: Enterovirus C, Vero 76, 48 h. The series is classed as functional, organism-based.
Series [4] deals with Vesicular stomatitis virus. Kind of series: Antiviral activity against Vesicular stomatitis virus infected african green monkey Vero76 cells assessed as reduction of virus-induced plaque reduction after 3 days by MTT assay. The series is classed as functional, organism-based. Particulars: Vero 76, 72 h.
A short description of series [5]: Selectivity index, ratio of CC50 for green monkey Vero76 cells to EC50 for HSV1. Set-up: species or system Vero 76.
Series [6] in a line: Cytotoxicity against Cricetinae BHK21 (hamster normal kidney fibroblast) cells after 48 to 120 hr by MTT assay. The series is classed as cell-based, Mesocricetus auratus, BHK-21. The settings on record: BHK21 cells (normal kidney fibroblasts).
Series [7] has as its system Mammalian orthoreovirus 1. Kind of series: Antiviral activity against Mammalian orthoreovirus 1 infected BHK21 cells assessed as inhibition of virus-induced cytopathogenicity after 3 to 4 days by MTT assay. The format is functional, organism-based. Particulars: Mammalian orthoreovirus 1, BHK-21. (In general: Cytopathic effects are the visible damage that an infection or toxin causes in cultured cells.)

A short description of series [8]: Cytotoxicity against Bos taurus MDBK cells after 48 to 120 hr by MTT assay. The series is classed as cell-based. Particulars: cattle.
Series [9] can be described thus: Selectivity index, ratio of CC50 for green monkey Vero76 cells to EC50 for Coxsackievirus B2. The format is toxicity, cell-based, Vero 76. Particulars: read-out: Ratio CC50/EC50.
In series [10] the test system is Human immunodeficiency virus 1. The series is described as follows: Antiviral activity against Human immunodeficiency virus 1 infected human MT4 cells assessed as inhibition of virus-induced cytopathogenicity after 4 days by MTT assay. The series is classed as functional, organism-based. The settings on record: Human immunodeficiency virus 1, MT4, 96 h.
The next series concerns Yellow fever virus. Kind of series: Antiviral activity against Yellow fever virus infected BHK21 cells assessed as inhibition of virus-induced cytopathogenicity after 3 to 4 days by MTT assay. The series is classed as functional, organism-based. Particulars: BHK-21.
Series [11] in a line: Cytotoxicity against Homo sapiens (human) MT4 cells containing integrated HTLV-1 genome after 96 hr by MTT assay. The format is cell-based.
Another series concerns Staphylococcus aureus. Kind of series: Antibacterial activity against Staphylococcus aureus DSM 2569 after 16 to 20 hr by broth microdilution method. The series is classed as functional.

`O=C1C2=C(SCCS2)C(=O)N1CCCCN1CCN(c2ccccc2)CC1`: the selectivity ratio is greater than 1.14 in series [1] and greater than 1.51 in series [9]. The EC50 is 66 µM in the series on Coxsackievirus B2; 19 µM in the series on Human alphaherpesvirus 1; greater than 100 µM in series [3]; greater than 100 µM with Vaccinia virus; greater than 100 µM with Poliovirus 1; greater than 100 µM in [4]. The EC50 in series [7] was greater than 100 µM; in series [10], greater than 100 µM; with Yellow fever virus it was 88 µM. Moreover, the MIC in the series with Pseudomonas aeruginosa, with Candida albicans, against Aspergillus niger and in the series with Staphylococcus aureus was greater than 100 µM in each case. Besides, the CC50 in series [2], in [6] and in series [8] was greater than 100 µM in each case. For the same compound, the “Ratio CC50/EC50” value in series [5] is greater than 5.26. The compound further gave a CC50 at 96 h in series [11] greater than 100 µM.
